System: 282377-053-R-J1-PDC complex spheroid viability
Test: Anticancer human tumor 282377-053-R-J1-PDC patient-derived colon adenocarcinoma cell line growth inhibition [POLQ]
Conditions: for IC50: curve of first compound; for viability, T/C: stronger effect = lower value
Method in brief: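 Growth inhibition in 3D: complex spheroids (tumor PDC, HUVEC, MSC) treated with POLQ inhibitor combinations; where Cmax unknown, highest tested concentration 10 microM, except SN-38 at 1 microM.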

[1] = second compound 0.0316 µM, first compound 0.0316 µM
[2] = second compound 0.0316 µM, first compound 0.1 µM
[3] = second compound 0.0316 µM, first compound 0.316 µM
[4] = second compound 0.0316 µM, first compound 1 µM
[5] = second compound 0.0316 µM, first compound 3.16 µM
[6] = second compound 0.0316 µM, first compound 10 µM
[7] = second compound 0.1 µM, first compound 0.0316 µM
[8] = second compound 0.1 µM, first compound 0.1 µM
[9] = second compound 0.1 µM, first compound 0.316 µM
[10] = second compound 0.1 µM, first compound 1 µM
[11] = second compound 0.1 µM, first compound 3.16 µM
[12] = second compound 0.1 µM, first compound 10 µM
[13] = second compound 0.316 µM, first compound 0.0316 µM
[14] = second compound 0.316 µM, first compound 0.1 µM
[15] = second compound 0.316 µM, first compound 0.316 µM
[16] = second compound 0.316 µM, first compound 1 µM
[17] = second compound 0.316 µM, first compound 3.16 µM
[18] = second compound 0.316 µM, first compound 10 µM
[19] = second compound 1 µM, first compound 0.0316 µM
[20] = second compound 1 µM, first compound 0.1 µM
[21] = second compound 1 µM, first compound 0.316 µM
[22] = second compound 1 µM, first compound 1 µM
[23] = second compound 1 µM, first compound 3.16 µM
[24] = second compound 1 µM, first compound 10 µM
[25] = second compound 3.16 µM, first compound 0.0316 µM
[26] = second compound 3.16 µM, first compound 0.1 µM
[27] = second compound 3.16 µM, first compound 0.316 µM
[28] = second compound 3.16 µM, first compound 1 µM
[29] = second compound 3.16 µM, first compound 3.16 µM
[30] = second compound 3.16 µM, first compound 10 µM
[31] = second compound 10 µM, first compound 0.0316 µM
[32] = second compound 10 µM, first compound 0.1 µM
[33] = second compound 10 µM, first compound 0.316 µM
[34] = second compound 10 µM, first compound 1 µM
[35] = second compound 10 µM, first compound 3.16 µM
[36] = second compound 10 µM, first compound 10 µM
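Further: spheroids exposed to compounds for seven days.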
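Wherever viability, T/C is given: 100% = DMSO vehicle control viability.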

COc1cccc2c1C(=O)c1c(O)c3c(c(O)c1C2=O)CC(O)(C(=O)CO)CC3OC1CC(N)C(O)C(C)O1 (stereo not drawn) + Cc1cccc(N(C)C(=O)C2C(O)CCN2c2nc(C)cc(C(F)(F)F)c2C#N)c1
IC50 (second compound 0.0316 µM): 0.476 µM | IC50 (second compound 0.1 µM): 0.561 µM | IC50 (second compound 0.316 µM): 0.458 µM | IC50 (second compound 1 µM): 0.375 µM | IC50 (second compound 3.16 µM): 0.487 µM | IC50 (second compound 10 µM): 0.35 µM | viability, T/C [1]: 130% | viability, T/C [2]: 105% | viability, T/C [3]: 63.7% | viability, T/C [4]: 27.6% | viability, T/C [5]: 1.27% | viability, T/C [6]: 3.44% | viability, T/C [7]: 108% | viability, T/C [8]: 98.5% | viability, T/C [9]: 79.6% | viability, T/C [10]: 20.7% | viability, T/C [11]: 1.4% | viability, T/C [12]: 2.79% | viability, T/C [13]: 104% | viability, T/C [14]: 100% | viability, T/C [15]: 66.1% | viability, T/C [16]: 16.1% | viability, T/C [17]: 0.98% | viability, T/C [18]: 3.12% | viability, T/C [19]: 113% | viability, T/C [20]: 101% | viability, T/C [21]: 47% | viability, T/C [22]: 29.9% | viability, T/C [23]: 2.19% | viability, T/C [24]: 2.83% | viability, T/C [25]: 115% | viability, T/C [26]: 91.7% | viability, T/C [27]: 73.3% | viability, T/C [28]: 15.2% | viability, T/C [29]: 1% | viability, T/C [30]: 2.98% | viability, T/C [31]: 95% | viability, T/C [32]: 89.8% | viability, T/C [33]: 54% | viability, T/C [34]: 9.01% | viability, T/C [35]: 0.71% | viability, T/C [36]: 2.73%

CCc1cc2c(N3CCc4c(cc(Cn5ccnc5)cc4-c4cn(C)nc4C(F)(F)F)C3=O)cc(C)nc2c(OC)n1 + Nc1ccc(C#CCN(C(=O)Cc2ncc(C(F)(F)F)cc2C(F)(F)F)c2ccc(F)cc2)nn1
IC50 (second compound 0.0316 µM): > 10 µM | IC50 (second compound 0.1 µM): > 10 µM | IC50 (second compound 0.316 µM): > 10 µM | IC50 (second compound 1 µM): > 10 µM | IC50 (second compound 3.16 µM): > 10 µM | IC50 (second compound 10 µM): > 10 µM | viability, T/C [1]: 83% | viability, T/C [2]: 81.5% | viability, T/C [3]: 89% | viability, T/C [4]: 98.2% | viability, T/C [5]: 120% | viability, T/C [6]: 99.3% | viability, T/C [7]: 84.8% | viability, T/C [8]: 82.8% | viability, T/C [9]: 82.3% | viability, T/C [10]: 75.1% | viability, T/C [11]: 93.4% | viability, T/C [12]: 115% | viability, T/C [13]: 96.6% | viability, T/C [14]: 86.2% | viability, T/C [15]: 89.4% | viability, T/C [16]: 82.3% | viability, T/C [17]: 95.9% | viability, T/C [18]: 96.1% | viability, T/C [19]: 82.1% | viability, T/C [20]: 88.7% | viability, T/C [21]: 79.8% | viability, T/C [22]: 96% | viability, T/C [23]: 96.7% | viability, T/C [24]: 107% | viability, T/C [25]: 95.6% | viability, T/C [26]: 91.3% | viability, T/C [27]: 85% | viability, T/C [28]: 106% | viability, T/C [29]: 90.5% | viability, T/C [30]: 108% | viability, T/C [31]: 108% | viability, T/C [32]: 102% | viability, T/C [33]: 125% | viability, T/C [34]: 107% | viability, T/C [35]: 113% | viability, T/C [36]: 115%

COc1cccc(OCCCN)c1-c1cc(Nc2cnc(C#N)cn2)n[nH]1 + COC1C(OC(N)=O)C(O)C(Oc2ccc3c(O)c(NC(=O)c4ccc(O)c(CC=C(C)C)c4)c(=O)oc3c2C)OC1(C)C
IC50 (second compound 0.0316 µM): 0.124 µM | IC50 (second compound 0.1 µM): 0.0562 µM | IC50 (second compound 0.316 µM): 0.0926 µM | IC50 (second compound 1 µM): 0.111 µM | IC50 (second compound 3.16 µM): 0.148 µM | IC50 (second compound 10 µM): 0.0936 µM | viability, T/C (second compound 0.0316 µM, first compound 0.00316 µM): 117% | viability, T/C (second compound 0.0316 µM, first compound 0.01 µM): 106% | viability, T/C [1]: 92.7% | viability, T/C [2]: 51.4% | viability, T/C [3]: 37.4% | viability, T/C [4]: 29.5% | viability, T/C (second compound 0.1 µM, first compound 0.00316 µM): 106% | viability, T/C (second compound 0.1 µM, first compound 0.01 µM): 114% | viability, T/C [7]: 63.9% | viability, T/C [8]: 46.2% | viability, T/C [9]: 34.9% | viability, T/C [10]: 25.6% | viability, T/C (second compound 0.316 µM, first compound 0.00316 µM): 118% | viability, T/C (second compound 0.316 µM, first compound 0.01 µM): 83.9% | viability, T/C [13]: 75.2% | viability, T/C [14]: 46.4% | viability, T/C [15]: 31.5% | viability, T/C [16]: 30.9% | viability, T/C (second compound 1 µM, first compound 0.00316 µM): 111% | viability, T/C (second compound 1 µM, first compound 0.01 µM): 76% | viability, T/C [19]: 67.9% | viability, T/C [20]: 60.6% | viability, T/C [21]: 31% | viability, T/C [22]: 33.2% | viability, T/C (second compound 3.16 µM, first compound 0.00316 µM): 87.9% | viability, T/C (second compound 3.16 µM, first compound 0.01 µM): 84.3% | viability, T/C [25]: 74.3% | viability, T/C [26]: 49.3% | viability, T/C [27]: 46.9% | viability, T/C [28]: 30.5% | viability, T/C (second compound 10 µM, first compound 0.00316 µM): 99.8% | viability, T/C (second compound 10 µM, first compound 0.01 µM): 81.4% | viability, T/C [31]: 70.1% | viability, T/C [32]: 47.4% | viability, T/C [33]: 34.6% | viability, T/C [34]: 26.5%

CC1COCCN1c1cc(C2(S(C)(=N)=O)CC2)nc(-c2ccnc3[nH]ccc23)n1 (stereo not drawn) + COC1C(OC(N)=O)C(O)C(Oc2ccc3c(O)c(NC(=O)c4ccc(O)c(CC=C(C)C)c4)c(=O)oc3c2C)OC1(C)C
IC50 (second compound 0.0316 µM): > 10 µM | IC50 (second compound 0.1 µM): 5.46 µM | IC50 (second compound 0.316 µM): 6.61 µM | IC50 (second compound 1 µM): 7.63 µM | IC50 (second compound 3.16 µM): 6.86 µM | IC50 (second compound 10 µM): 9.91 µM | viability, T/C [1]: 108% | viability, T/C [2]: 89.1% | viability, T/C [3]: 110% | viability, T/C [4]: 76.9% | viability, T/C [5]: 74.9% | viability, T/C [6]: 56.7% | viability, T/C [7]: 92.4% | viability, T/C [8]: 104% | viability, T/C [9]: 88.5% | viability, T/C [10]: 72.1% | viability, T/C [11]: 61.9% | viability, T/C [12]: 39.6% | viability, T/C [13]: 103% | viability, T/C [14]: 82.1% | viability, T/C [15]: 83.6% | viability, T/C [16]: 81% | viability, T/C [17]: 80.4% | viability, T/C [18]: 33.9% | viability, T/C [19]: 115% | viability, T/C [20]: 90.2% | viability, T/C [21]: 91.5% | viability, T/C [22]: 81% | viability, T/C [23]: 79.5% | viability, T/C [24]: 39.9% | viability, T/C [25]: 99% | viability, T/C [26]: 93.3% | viability, T/C [27]: 85.3% | viability, T/C [28]: 107% | viability, T/C [29]: 59.6% | viability, T/C [30]: 45.3% | viability, T/C [31]: 104% | viability, T/C [32]: 119% | viability, T/C [33]: 79.8% | viability, T/C [34]: 92.3% | viability, T/C [35]: 66.1% | viability, T/C [36]: 49.7%

Source: PubChem BioAssay AID1963852 (Molecular Pharmacology Branch, DTP, NCI, 2024)
